How the values were obtained:
[1] = tested on: pathological blood-brain barrier; assay: Evans blue permeation into the brain after treatment, model of Parkinson's disease; assay type: in vivo, C57/BL6 mice; conditions: Axitinib 10 mg/kg tail vein 7 days; levodopa 20 mg/kg intraperitoneally 10 days; vs Parkinson's control; FIGS. 26 and 27
[2] = tested on: model of Parkinson's disease; assay: Movement time within 2 minutes, model of Parkinson's disease; assay type: in vivo, C57/BL6 mice; conditions: Axitinib 10 mg/kg 7 days; levodopa 20 mg/kg 10 days; vs Parkinson's control; FIG. 28
Procedure: After the treatment was accomplished, movement time within 2 minutes (walking, lifting of both forelimbs, washing face, hair grooming and the like) was recorded for each of the test groups (n=5).
After the Axitinib treatment and the levodopa treatment was accomplished, movement time within 2 minutes (walking, lifting of both forelimbs, washing face, hair grooming and the like) was recorded for each of the test groups.

tyrosine hydroxylase = assay: Striatum tyrosine hydroxylase immunohistochemistry, model of Parkinson's disease; conditions: Axitinib 10 mg/kg 7 days; levodopa 20 mg/kg 10 days; FIG. 29
bEnd.3 cells = assay: Cell survival rate by tetrazolium blue colorimetry, bEnd.3 cells; assay type: cell-based; conditions: 10 μM (therapeutic dose), FIGS. 13 and 14
Procedure: (§1) FIG. 13: Evaluation of cell survival rate in a Transwell model. A Transwell model of co-incubation of brain microvascular endothelial cells bEnd.3 and glioma cells U87 MG simulates a pathological blood-brain barrier. Axitinib (10 μM) and an Axitinib analog of phosphatidylinositol kinase (PI3K) inhibitor LY294002 (10 μM) were added into the Transwell chamber. After 24 hours, the survival rate of bEnd.3 cells in the Transwell chamber (Panel A) and U87 MG cells in the Transwell outer chamber (Panel B) were detected by tetrazolium blue colorimetry (n=3).
(§2) FIG. 14: Evaluation of Cytotoxicity for Axitinib and an analog thereof. […] Cell survival rate was detected by tetrazolium blue colorimetry. […]
(§3) The physiological blood-brain barrier and the pathological blood-brain barrier as constructed in Method 1 and Method 2 in the Example 1 were used as models, respectively. […] Absorbance at 570 nm was measured with a microplate reader. The survival rate of cells was calculated according to the following formula: Survival rate of cells (%)=(absorbance value of a test group/absorbance value of a control group)×100%
(§4) In addition, bEnd.3 cells and U87 MG glioma cells were used as model cells to evaluate the cytotoxicity of Axitinib and an Axitinib analog of phosphatidylinositol kinase (PI3K) inhibitor LY294002 with the tetrazolium blue colorimetric method. […] Absorbance at 570 nm was measured with a microplate reader.

U87 MG glioma cells = assay: Cell survival rate by tetrazolium blue colorimetry, U87 MG cells; assay type: cell-based; conditions: U87MG cells, 10 μM (therapeutic dose); FIGS. 13 and 14
Procedure: as §1, §2, §3, §4

| Structure (SMILES) | Amount of Evans blue permeated into the brain [1] | Dyskinesia (movement time within 2 minutes) [2] | Expression of striatum tyrosine hydroxylase (tyrosine hydroxylase) | Cytotoxicity (bEnd.3 cells) | Cytotoxicity (U87 MG glioma cells) |
| --- | --- | --- | --- | --- | --- |
| N[C@@H](Cc1ccc(O)c(O)c1)C(=O)O [levodopa] | reduced to varied degrees | significantly alleviated | significantly up-regulated | – | – |
| O=c1cc(N2CCOCC2)oc2c(-c3ccccc3)cccc12 [LY294002] | – | – | – | do not produce significant cytotoxicity | do not produce significant cytotoxicity |
